Data from PMC9145741, “Bioprospecting for Thermozymes and Characterization of a Novel Lipolytic Thermozyme Belonging to the SGNH/GDSL Family of Hydrolases” (International Journal of Molecular Sciences, 2022).

Tested on: T1, LipB12_A11
T1 construct: EcoRV fosmid fragment subcloned in pJET1.2, E. coli T7 Express; no tag mentioned; heat step, ammonium sulphate, Superdex 75
Test: p-nitrophenol release at […] nm, Michaelis-Menten non-linear regression
Assay type: biochemical
Settings: 60 °C, pH 9; 0.002-2 mM substrate

CCCCCCCCCCCC(=O)Oc1ccc([N+](=O)[O-])cc1 [pNP-laurate]
Km: 17.3 ± 3.51 µM
